Source: patent US8722901B2, “Carboxy oxazole or thiazole compounds as DGAT-1 inhibitors useful for the treatment of obesity” (Piramal Enterprises Limited, priority 2009, dated 2014)

How the values were obtained:
[1] = system: Swiss mice; experiment: Fat tolerance test (ftt) in mice; assay type: in vivo; details: 3 mg/kg p.o., olive oil load 10 ml/kg p.o., reduction in AUC0-4h, vehicle group as 100%
Procedure: Study Protocol for Screening of Compounds for Fat Tolerance Test (ftt) in Mice
Swiss mice of age 4-5 weeks and body weight between 25-30 g were selected for study. After overnight fasting, animals were divided into three groups based on plasma triglyceride level with same mean and variation Animals were administered with either vehicle (1% Tween 80 in 0.5% carboxy methylcellulose) or with compounds of the present invention (3 mg/kg, p.o.). Compounds of the present invention were prepared as suspension in 0.5% carboxy methylcellulose (CMC) with 1% Tween 80. 30 minutes after the treatment, olive oil load (10 ml/kg, p.o.) was given. Blood samples were collected at 1, 2, 3 and 4 h after the fat (olive oil) load. Plasma was separated and triglyceride level was measured using commercially available kits (Diasys, Germany). Percentage reduction in area under curve (AUC0-4h) of the test compound was calculated by taking AUC0-4h of the vehicle group as 100%.

[2] = biological target: T1, hDGAT-1 (Homo sapiens, UniProt O75907); experiment: In-vitro DGAT-1 assay (14C oleoyl CoA, microsomes from Sf9 cells); assay type: biochemical; details: 1 μM compound; hDGAT-1 containing microsomes from Sf9 cells
T1 construct: host or cells: Sf9 insect cells (baculovirus); microsomal fraction
T1 sequence (O75907 1-488): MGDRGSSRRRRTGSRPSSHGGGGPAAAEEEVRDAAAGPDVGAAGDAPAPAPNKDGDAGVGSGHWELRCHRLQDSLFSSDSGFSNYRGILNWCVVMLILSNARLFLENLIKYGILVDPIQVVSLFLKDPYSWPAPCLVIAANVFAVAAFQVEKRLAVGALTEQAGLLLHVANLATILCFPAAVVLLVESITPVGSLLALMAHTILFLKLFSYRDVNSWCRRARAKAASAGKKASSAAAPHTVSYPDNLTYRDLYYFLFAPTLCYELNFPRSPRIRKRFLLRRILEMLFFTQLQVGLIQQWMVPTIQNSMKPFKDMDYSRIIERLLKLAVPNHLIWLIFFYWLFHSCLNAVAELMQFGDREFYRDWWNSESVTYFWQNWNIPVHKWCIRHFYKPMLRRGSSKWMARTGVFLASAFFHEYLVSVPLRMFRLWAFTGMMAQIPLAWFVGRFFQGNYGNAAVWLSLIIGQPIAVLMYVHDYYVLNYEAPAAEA
Procedure: In-Vitro Protocol for DGAT-1 Assay
Sf9 Culture and Treatment
Sf9 cells were grown in T25 flasks containing Graces's Insect media (Invitrogen, US) with 10% FBS (Hyclone, US) with antibiotic (100 units/mL penicillin, 100 μg/mL streptomycin sulphate, 0.25 μg/mL amphotericin B as Fungizone) grown in a 27° C. incubator.
hDGAT-10RF expression clone (RZPDo839C09146 in pDEST vector) was obtained from RZPD, Germany. hDGAT-1 bacmid DNA was obtained by transformation of the hDGAT expression clone into DH10Bac E. coli competent cells. Approximately 1 μg of hDGAT-1 bacmid DNA was infected into Sf9 cells with Cellfectin (Invitrogen, US) reagent. Following infection, Sf9 cells were incubated at 27° C. for 30 minutes. Five hours after infection, the media was replaced with growth media containing antibiotic (100 units/mL penicillin, 100 μg/mL streptomycin sulphate, 0.25 μg/mL amphotericin B as Fungizone) and incubated at 27° C. for 72 hours. The supernatant containing the virus was centrifuged at 1500 g for 5 minutes, passed through 0.22 μm filter, and subsequently stored at 4° C. The virus was further amplified three more times by re-infection of Sf9 cells and the viral titer was determined by plaque assay.
Preparation of DGAT-1 Microsomes from Sf9 Cells
Sf9 cells were seeded in spinner flasks on day 0 at a cell density of 1×10^6 and infected on day 1 with hDGAT-1 baculovirus at a multiplicity of infection (MOI) of 5 and a cell density of 2×10^6. On day 3 (or 66-72 hours), cells were harvested and centrifuged at 2500 g for 10 minutes. Pellet was resuspended in lysis buffer (100 mM sucrose, 50 mM KCl, 40 mM KH2PO4, 30 mM EDTA, pH 7.2) and passed through 21-gauge needle approximately 10 times. […] The supernatant was subjected to centrifugation at 35,000 rpm in a Beckman Ti-45 rotor at 4° C. for 1 hour. The resultant pellet containing the microsomes were resuspended overnight in 1 mL of lysis buffer and total protein concentration was estimated using Bradford Reagent (Sigma, US). Microsomes were aliquoted and stored at −80° C.
Measurement of DGAT-1 Activity
Frozen aliquots of hDGAT-1 containing microsomes were thawed (5-10 mg/mL total protein) on ice and diluted to a working stock of 1 mg/mL with DGAT Assay Buffer (DAB).
The assay was performed in duplicates in a reaction volume of 100 μL. […] Procedure:
The reaction was started by the addition of […] of 1 mg/mL of microsomes (iv) to the mixture and incubated at 37° C. for 10 minutes. […] The mixture was vortexed and the triglycerides formed were extracted into the organic heptane phase.

## 2-(5-(4-(3-(3,4-dimethylphenyl)ureido)phenyl)oxazole-2-carboxamido)-3-methylbutanoic acid [Example 14]
[1]
  % Reduction (Plasma triglyceride): ++ (>50% Reduction ≦100)
[2]
  % inhibition of hDGAT-1 at 1 μM: ++ (>50% Inhibition ≦100)

## CC(C)C(NC(=O)c1ncc(-c2ccc(NC(=O)Nc3ccccc3Cl)cc2)s1)C(=O)O (stereo not shown) [Example 12, 2-(5-(4-(3-(2-Chlorophenyl)ureido)phenyl)thiazole-2-carboxamido)-3-methylbutanoic acid]
[1]
  % Reduction (Plasma triglyceride): ++ (>50% Reduction ≦100)

## CC(C)C(NC(=O)c1ncc(-c2ccc(NC(=O)Nc3ccccc3Oc3ccccc3)cc2)s1)C(=O)O (stereo not shown) [Example 16, 3-methyl-2-(5-(4-(3-(2-phenoxyphenyl)ureido)phenyl)thiazole-2-carboxamido)butanoic acid]
[1]
  % Reduction (Plasma triglyceride): ++ (>50% Reduction ≦100)

## CC(C)C(NC(=O)c1ncc(-c2ccc(NC(=O)Nc3cccc(C(F)(F)F)c3)cc2)s1)C(=O)O (stereo not shown) [Example 10, 3-methyl-2-(5-(4-(3-(3-(trifluoromethyl)phenyl)ureido)phenyl)thiazole-2-carboxamido)butanoic acid]
[1]
  % Reduction (Plasma triglyceride): ++ (>50% Reduction ≦100)

## CC(C)C(NC(=O)c1ncc(-c2ccc(Nc3nc4ccc(F)cc4s3)cc2)s1)C(=O)O (stereo not shown) [Example 20, 2-(5-(4-(6-fluorobenzo[d]thiazol-2-ylamino)phenyl)thiazole-2-carboxamido)-3-methylbutanoic acid]
[1]
  % Reduction (Plasma triglyceride): ++ (>50% Reduction ≦100)

## CC(C)C(NC(=O)c1ncc(-c2ccc(NC(=O)Nc3ccc(Cl)cc3Oc3ccccc3)cc2)s1)C(=O)O (stereo not shown) [Example 18, 2-(5-(4-(3-(4-chloro-2-phenoxyphenyl)ureido)phenyl)thiazole-2-carboxamido)-3-methylbutanoic acid]
[1]
  % Reduction (Plasma triglyceride): ++ (>50% Reduction ≦100)

## CC(C)C(NC(=O)c1ncc(-c2ccc(NC(=O)c3ccc(C(C)(C)C)cc3)cc2)s1)C(=O)O (stereo not shown) [Example 22, 2-(5-(4-(4-tert-butylbenzamido)phenyl)thiazole-2-carboxamido)-3-methylbutanoic acid]
[1]
  % Reduction (Plasma triglyceride): ++ (>50% Reduction ≦100)

## CC(C)C(NC(=O)c1ncc(-c2ccc(NC(=O)Nc3ccccc3Cl)cc2)o1)C(=O)O (stereo not shown) [Example 4, 2-(5-(4-(3-(2-Chlorophenyl)ureido)phenyl)oxazole-2-carboxamido)-3-methylbutanoic acid]
[1]
  % Reduction (Plasma triglyceride): + (>0% Reduction ≦50)
[2]
  inhibition at 1 µM: 50 to 100%
